Data on one molecule can be found in publication PMC7409302 (Cancers, 2020).

This assay addresses T1, androgen receptor (AR) (Homo sapiens, UniProt P10275, T878A).
T1 construct: endogenous full-length AR in LNCaP cells
T1 sequence (P10275 1-920 T878A): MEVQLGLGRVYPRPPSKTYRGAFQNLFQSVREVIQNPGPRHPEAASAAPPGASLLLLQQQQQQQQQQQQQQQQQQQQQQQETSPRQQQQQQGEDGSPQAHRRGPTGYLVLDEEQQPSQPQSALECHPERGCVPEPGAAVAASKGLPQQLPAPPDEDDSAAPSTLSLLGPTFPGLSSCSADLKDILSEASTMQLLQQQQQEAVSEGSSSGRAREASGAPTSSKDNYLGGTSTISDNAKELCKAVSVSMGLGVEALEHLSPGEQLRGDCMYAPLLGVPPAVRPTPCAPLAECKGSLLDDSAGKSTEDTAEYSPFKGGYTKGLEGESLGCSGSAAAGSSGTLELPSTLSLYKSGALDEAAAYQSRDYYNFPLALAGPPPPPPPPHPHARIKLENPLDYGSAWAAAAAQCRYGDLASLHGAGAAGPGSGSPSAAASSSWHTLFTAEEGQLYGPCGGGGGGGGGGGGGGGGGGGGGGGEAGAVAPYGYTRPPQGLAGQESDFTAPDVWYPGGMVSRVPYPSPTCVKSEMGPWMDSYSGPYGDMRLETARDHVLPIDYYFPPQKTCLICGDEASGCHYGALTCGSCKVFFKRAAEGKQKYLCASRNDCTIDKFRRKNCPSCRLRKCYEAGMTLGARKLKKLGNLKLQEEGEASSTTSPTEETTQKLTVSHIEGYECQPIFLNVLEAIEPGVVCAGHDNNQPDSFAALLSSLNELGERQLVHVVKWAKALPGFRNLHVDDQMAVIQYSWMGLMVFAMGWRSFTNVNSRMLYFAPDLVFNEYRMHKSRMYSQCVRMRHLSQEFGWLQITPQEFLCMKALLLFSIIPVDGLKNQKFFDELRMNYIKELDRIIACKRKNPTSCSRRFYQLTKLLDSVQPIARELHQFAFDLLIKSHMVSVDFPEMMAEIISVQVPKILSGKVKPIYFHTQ
As to the kind of experiment: androgen (R1881)-induced PSA([…].1kb)-luciferase reporter in LNCaP cells. Format: cell-based. A general note: A reporter such as luciferase makes a cellular process visible.

For the molecule `CC(C)(c1ccc(OC[C@H](O)CNS(C)(=O)=O)cc1)c1cc(Cl)c(OC[C@H](O)CCl)c(Cl)c1` [EPI-7170], the IC50 (in general, the point on the concentration scale where inhibition reaches its midpoint) was determined as 1.08 ± 0.55 µM.
